The record followed here is patent publication US6225306A, “Biphenyl derivatives and drug composition” (Wakamoto Pharmaceutical Co., Ltd., priority 1997, dated 2001).

For one data set, the system named is male ICR mice. Nature of the data set: Acute Toxicity Test. It counts as in vivo. Conditions: oral, 7 days observation. The method, then: To groups of male ICR mice (6-week-old) each consisting of 5 animals, there were orally administered the compounds of Examples 13, 18, 25 and 30 and Comparative Examples 2 and 5 suspended in 5% gum arabic solution at doses of 150, 500 and 1500 mg/kg, followed by observation of the general symptoms of these animals during 7 days after the administration to thus evaluate the number of death. In this respect, mice were given feed and water ad libitum throughout this test except for the term extending from 16 to 20 hours before the administration and 4 hours after the administration.

In another data set the test system is Normal Conscious Rat. Nature of the data set: Aquaretic Effects in Normal Conscious Rat (urine volume). It counts as in vivo, rat (Sprague-Dawley, male). On the procedure:
Aquaretic Effects in Normal Conscious Rat
Studies were performed with Sprague-Dawley male SPF rats (body weight: 240 to 320 g; 8-week-old). In this experiment, each group consisted of not less than 4 animals and rats were fasted over 16 to 20 hours. The animals were acclimatized in metabolic cages for one hour, then each compound to be tested was dissolved in 100% N,N-dimethylformamide or suspended in 5% gum arabic solution and administered to these animals intravenously (iv.) in a dose of 3 mg/kg or orally (p.o.) in a dose of 30 mg/kg. Immediately after the test compound or vehicle were orally administered, saline (25 ml/kg) was given orally. Spontaneous voided urines were collected for 4 hours after the administration of the compound and the amount of the urine were determined. In this case, the control group consisted of animals to which only 5% gum arabic was orally administered.
In addition, known compounds of Comparative Examples 2 and Comparative Examples 3 and 4 represented by the following formulas were used as control compounds.

In the next data set the target is Vasopressin V2 Receptor (Rattus norvegicus, UniProt Q00788). Put plainly: biochemical. The following applies: for inhibition at 0.1 µM: 1 h, read-out: Binding Rate of Vasopressin V2 Receptor. Type of data set: binding, rat (Sprague-Dawley, female; kidney crude membrane).
A further data set addresses Vasopressin V1 Receptor (Rattus norvegicus, UniProt P30560). Put plainly: biochemical. Type of data set: binding, rat (Sprague-Dawley, female; liver crude membrane). The following applies: for inhibition at 0.1 µM: 1 h, read-out: Binding Rate of Vasopressin V1 Receptor.
Setting [1] is: 10^-7 M, inhibition rate at this concentration.

Values joined by “and” are separate entries in the source; they are usually repeats but may differ in a detail not shown here. Identical values can stand only once. Counter-ions that a name gives are not always drawn. Like-named read-outs stand apart in the source and are kept apart here.

Chain of Vasopressin V2 Receptor (Q00788 whole entry): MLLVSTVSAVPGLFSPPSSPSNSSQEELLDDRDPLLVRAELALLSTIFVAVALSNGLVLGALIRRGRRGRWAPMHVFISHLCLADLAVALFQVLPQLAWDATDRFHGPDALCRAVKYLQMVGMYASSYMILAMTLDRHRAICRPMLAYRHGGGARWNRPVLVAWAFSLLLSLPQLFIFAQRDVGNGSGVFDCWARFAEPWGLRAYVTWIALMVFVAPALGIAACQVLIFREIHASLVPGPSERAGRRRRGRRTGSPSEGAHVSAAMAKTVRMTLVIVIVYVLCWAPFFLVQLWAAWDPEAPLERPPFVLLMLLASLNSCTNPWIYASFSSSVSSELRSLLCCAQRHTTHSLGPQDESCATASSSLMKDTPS
Chain of Vasopressin V1 Receptor (P30560 whole entry): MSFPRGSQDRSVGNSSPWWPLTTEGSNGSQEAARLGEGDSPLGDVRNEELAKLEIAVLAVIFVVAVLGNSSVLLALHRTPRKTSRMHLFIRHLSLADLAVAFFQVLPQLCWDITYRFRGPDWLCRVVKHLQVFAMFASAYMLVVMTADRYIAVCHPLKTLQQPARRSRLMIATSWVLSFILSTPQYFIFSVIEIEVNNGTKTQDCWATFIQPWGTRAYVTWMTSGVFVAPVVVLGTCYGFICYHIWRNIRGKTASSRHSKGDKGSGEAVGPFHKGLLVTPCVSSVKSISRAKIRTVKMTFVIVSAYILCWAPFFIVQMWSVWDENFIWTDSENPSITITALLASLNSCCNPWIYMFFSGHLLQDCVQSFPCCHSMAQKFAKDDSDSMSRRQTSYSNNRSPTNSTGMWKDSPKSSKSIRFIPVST
Protocol for Vasopressin V1 Receptor: The livers excised from Sprague-Dawley female rats were cut into small pieces, and were homogenized in 50 mM Tris-HCl, pH 7.4 hereunder referred to as "buffer"). The homogenate was centrifuged at 50000×g, at 4° C. for 20 minutes. The pellet was added the buffer in an amount of 10 times the volume of the pellet, the mixture was recentrifuged by the same method as described above to wash the residue. The buffer was further added to the resulting pellet so that the protein content thereof was adjusted to 10 mg/ml to thus give a crude membrane fraction of rat liver. The crude membrane fraction of rat liver was used in the following test. More specifically, 5000 μg of the crude liver membrane was incubated with [^3 H]-Arg-vasopressin V-1 antagonist ([^3 H) vasopressin V1 antagonist: 2 nM) and various concentration (3×10^-12 to 10^-6) of the test compounds in a 1000 μL of buffer containing 10 mM magnesium chloride, 10 mM potassium chloride and 0.1% bovine serum albumin at 25° C. for 60 minutes. Thereafter the incubation mixture was rapidly filtered by vacuum using a cell harvester. The filters were washed with buffer to remove free ligands and excess buffer, and to thus trap labeled ligand linked with the receptor on the filter paper. The filter paper was sufficiently dried and mixed with a liquid scintillator, and the amount of the [^3 H] vasopressin V1 antagonist bonded to the membrane was determined using a liquid scintillation counter. The inhibition rate at each concentration was calculated according to the following equation:
Inhibition Rate (%)=100-[(B-N)/(B0 -N)]×100
Wherein B represents the amount of the [^3 H] vasopressin V1 antagonist bonded to the membrane in the presence of known amounts of the compound to be tested and the [^3 CH] vasopressin V1 antagonist;
B0 represents the amount of the [^3 H] vasopressin V1 antagonist bonded to the membrane in the absence of the compound to be tested;
N represents the amount of the [^3 H] vasopressin V1 antagonist bonded to the membrane in the presence of an excess of vasopressin (10^-6 M).
The IC50 value (the concentration required to cause 50% inhibition of the specific binding of [^3 H]-V1 antagonist) was determined. […] On the other hand, for the compounds which were investigated only one concentration (10^-7 M), the inhibition rate at that concentration was defined to be the binding rate.

On to `Cc1nc2c([nH]1)-c1ccccc1N(C(=O)c1ccc(NC(=O)c3ccccc3-c3ccccc3)cc1)CC2` [Comparative Example 5, reference compound], for which the “number of death out of 5 or 6 animals” value in the data set on male ICR mice (150 mg/kg) was 0/5; in the data set on male ICR mice (500 mg/kg) it was 2 out of 5 and 2/5; in the data set on male ICR mice (1500 mg/kg), 2 out of 5 and 2/5.

As for `CN(C)[C@H]1C[C@@H]2CN(C(=O)c3ccc(NC(=O)c4ccccc4-c4ccccc4)cc3)c3ccccc3N2C1` [Example 21, (2S, 3aR)-2-(N,N-Dimethylamino)-5-[4-[(2-Phenylbenzoyl) Amino]Benzoyl]-1,2,3,3a,4,5-Hexahydro-Pyrrolo[1,2-a]Quinoxaline], the “Amount of Urine Volume” value came to 47.6 ml/kg/0-4 hr with Normal Conscious Rat (3 mg/kg, i.v.) and 81.4 ml/kg/0-4 hr in the data set on Normal Conscious Rat (30 mg/kg, p.o.). For the same compound, the inhibition at 0.1 µM at Vasopressin V2 Receptor (setting [1]) is 100%; on Vasopressin V1 Receptor (setting [1]), 19.5%.

Regarding `Cc1ccc(-c2ccccc2C(=O)Nc2ccc(C(=O)N3C[C@H]4C[C@H](N(C)C)CN4c4ccccc43)cc2)cc1` [Example 22, (2S, 3aR)-2-(N,N-Dimethylamino)-5-[4-[[2-(4-Tolyl) Benzoy]Amino]Benzoyl]-1,2,3,3a,4,5-Hexahydro-Pyrrolo[1,2-a]Quinoxaline Hydrochloride], the “Amount of Urine Volume” value in the data set on Normal Conscious Rat (3 mg/kg, i.v.) was found to be 58.8 ml/kg/0-4 hr; in the data set on Normal Conscious Rat (30 mg/kg, p.o.), 79.6 ml/kg/0-4 hr. For the same compound, the results for the inhibition at 0.1 µM on Vasopressin V2 Receptor (setting [1]) and at Vasopressin V1 Receptor (setting [1]) were 100% and 33.5%, respectively.

On to `Cc1ccc(-c2ccccc2C(=O)Nc2ccc(C(=O)N3C[C@H]4CC(=O)CN4c4ccccc43)cc2)cc1` [Example 24], for which the “Amount of Urine Volume” value with Normal Conscious Rat (3 mg/kg, i.v.) is listed as 49.4 ml/kg/0-4 hr; in the data set with Normal Conscious Rat (30 mg/kg, p.o.), 46.1 ml/kg/0-4 hr. Also, the inhibition at 0.1 µM came to 100% at Vasopressin V2 Receptor (setting [1]) and 16.5% on Vasopressin V1 Receptor (setting [1]).

As to `Cc1ccc(-c2ccccc2C(=O)Nc2ccc(C(=O)N3C[C@@H]4CCCN4C(=O)c4ccccc43)cc2)cc1` [Example 26, (11aS)-10-[4-[[2-(4-Tolyl) Benzoyl]Amino]Benzoyl]-1,2,3,10,11,11a-Hexahydro-5H-Pyrrolo[2,1-c][1,4]Benzodiazepin-5-One], the “Amount of Urine Volume” value with Normal Conscious Rat (3 mg/kg, i.v.) was 72.3 ml/kg/0-4 hr; in the data set with Normal Conscious Rat (30 mg/kg, p.o.), 88.3 ml/kg/0-4 hr. Besides, the values for the inhibition at 0.1 µM at Vasopressin V2 Receptor (setting [1]) and on Vasopressin V1 Receptor (setting [1]) were 100% and 4%, respectively.

As to `O=C(Nc1ccc(C(=O)N2C[C@@H]3C[C@H](O)CN3C(=O)c3ccccc32)cc1)c1ccccc1-c1ccccc1` [Example 29, (2S, 11aS)-2-Hydroxy-10-[4-[(2-Phenylbenzoyl) Amino]Benzoyl]-1,2,3,10,11,11a-Hexahydro-5H-Pyrrolo[2,1-c][1,4]Benzodiazepin-5-One], the “Amount of Urine Volume” value in the data set on Normal Conscious Rat (3 mg/kg, i.v.) amounted to 50.4 ml/kg/0-4 hr; with Normal Conscious Rat (30 mg/kg, p.o.), 14.0 ml/kg/0-4 hr. For the same compound, the results for the inhibition at 0.1 µM at Vasopressin V2 Receptor (setting [1]) and at Vasopressin V1 Receptor (setting [1]) were 99.5% and 18.9%, respectively.

On to `O=C(Nc1ccc(C(=O)N2C[C@@H]3CCCN3C(=S)c3ccccc32)cc1)c1ccccc1-c1ccccc1` [Example 37, (11aS)-10-[4-[(2-Phenylbenzoyl) Amino]Benzoyl]-1,2,3,10,11, 11a-Hexahydro-5H-Pyrrolo[2,1-c][1,4]Benzodiazepin-5-Thione], for which the “Amount of Urine Volume” value with Normal Conscious Rat (3 mg/kg, i.v.) came out at 40.7 ml/kg/0-4 hr; with Normal Conscious Rat (30 mg/kg, p.o.), 21.1 ml/kg/0-4 hr. The inhibition at 0.1 µM was determined as 100% at Vasopressin V2 Receptor (setting [1]) and 2.8% at Vasopressin V1 Receptor (setting [1]).

Take `Cc1ccc(-c2ccccc2C(=O)Nc2ccc(C(=O)N3C[C@@H]4CCCN4C(=S)c4ccccc43)cc2)cc1` [Example 38, (11aS)-10-[4-[[2-(4-Tolyl) Benzoyl]Amino]Benzoyl]-1,2,3,10,11, 11a-Hexahydro-5H-Pyrrolo[2,1-c][1,4]Benzodiazepin-5-Thione]: the “Amount of Urine Volume” value in the data set on Normal Conscious Rat (3 mg/kg, i.v.) stood at 60.0 ml/kg/0-4 hr; in the data set with Normal Conscious Rat (30 mg/kg, p.o.) it was 66.6 ml/kg/0-4 hr. In addition, the inhibition at 0.1 µM on Vasopressin V2 Receptor (setting [1]) worked out at 100%; at Vasopressin V1 Receptor (setting [1]), 4.7%.

Consider `O=C(Nc1ccc(C(=O)N2C[C@@H]3CCCN3Cc3ccccc32)cc1)c1ccccc1-c1ccccc1` [Example 41, (11aS)-10-[4-[(2-Phenylbenzoyl) Amino]Benzoyl]-1,2,3,10,11, 11a-Hexahydro-5H-Pyrrolo[12,1-c][1,4]Benzodiazepine Hydrochloride], for which the “Amount of Urine Volume” value came to 29.6 ml/kg/0-4 hr in the data set on Normal Conscious Rat (3 mg/kg, i.v.) and 73.8 ml/kg/0-4 hr in the data set on Normal Conscious Rat (30 mg/kg, p.o.). Besides, the inhibition at 0.1 µM worked out at 92% at Vasopressin V2 Receptor (setting [1]) and 6.6% on Vasopressin V1 Receptor (setting [1]).

As to `Cl.O=C(Nc1ccc(C(=O)N2C[C@H]3CCCN3Cc3ccccc32)cc1)c1ccccc1-c1ccccc1` [Example 43, (11aR)-10-[4-[(2-Phenylbenzoyl) Amino]Benzoyl]-1,2,3,10,11, 11a-Hexahydro-5H-Pyrrolo[2,1-c][1,4]Benzodiazepine Hydrochloride], the “Amount of Urine Volume” value with Normal Conscious Rat (3 mg/kg, i.v.) is listed as 77.5 ml/kg/0-4 hr; in the data set on Normal Conscious Rat (30 mg/kg, p.o.) it was 121.6 ml/kg/0-4 hr. The inhibition at 0.1 µM on Vasopressin V2 Receptor was determined as 100%; at Vasopressin V1 Receptor, 61.6%.

On to `Cc1ccc(-c2ccccc2C(=O)Nc2ccc(C(=O)N3C[C@H]4CCCN4Cc4ccccc43)cc2)cc1` [Example 44, (11aR)-10-[4-[[2-(4-Tolyl) Benzoyl]Amino]Benzoyl]-1,2,3,10,11, 11-Hexahydro-5H-Pyrrolo[2,1-c][1,4]Benzodiazepine Hydrochloride], for which the “Amount of Urine Volume” value in the data set with Normal Conscious Rat (3 mg/kg, i.v.) was found to be 73.0 ml/kg/0-4 hr; in the data set with Normal Conscious Rat (30 mg/kg, p.o.), 92.8 ml/kg/0-4 hr. Further, the values for the inhibition at 0.1 µM on Vasopressin V2 Receptor (setting [1]) and on Vasopressin V1 Receptor (setting [1]) were 96.7% and 48.2%, respectively.

As usually defined, the IC50 is the concentration needed to halve the response being measured. As for `Cl.O=C(Nc1ccc(C(=O)N2C[C@H]3C[C@H](O)CN3Cc3ccccc32)cc1)c1ccccc1-c1ccccc1` [Example 47, (2S, 11aR)-2-Hydroxy-10-[4-[(2-Phenylbenzoyl) Amino]Benzoyl]-1,2,3,10,11,11a-Hexahydro-5H-Pyrrolo[2,1-c][1,4]Benzodiazepine Hydrochloride], the “Amount of Urine Volume” value with Normal Conscious Rat (3 mg/kg, i.v.) was 79.5 ml/kg/0-4 hr; in the data set on Normal Conscious Rat (30 mg/kg, p.o.), 109.6 ml/kg/0-4 hr. Further, the inhibition at 0.1 µM at Vasopressin V2 Receptor came to 91.9%; on Vasopressin V1 Receptor, 59.8%. For the same compound, the IC50 at Vasopressin V2 Receptor ([3H] vasopressin V2 antagonist 2 nM, 25° C., 60 minutes, read-out: Affinity for Vasopressin V2 Receptor, IC50) came out at 0.77 nM; on Vasopressin V1 Receptor ([3H] vasopressin V1 antagonist 2 nM, 25° C., 60 minutes, read-out: Affinity for Vasopressin V1 Receptor, IC50) it was 62 nM.

For `Cl.O=C1C[C@@H]2CN(C(=O)c3ccc(NC(=O)c4ccccc4-c4ccccc4)cc3)c3ccccc3CN2C1` [Example 48, (11aR)-10-[4-[(2-Phenylbenzoyl) Amino]Benzoyl]-1,2,3,10,11, 11a-Hexahydro-5H-Pyrrolo[2,1-c][1,4]Benzodiazepin-2-One Hydrochloride], the “Amount of Urine Volume” value is on record as 78.9 ml/kg/0-4 hr in the data set on Normal Conscious Rat (3 mg/kg, i.v.) and 14.8 ml/kg/0-4 hr with Normal Conscious Rat (30 mg/kg, p.o.). For the same compound, the inhibition at 0.1 µM at Vasopressin V2 Receptor was found to be 96.8%; at Vasopressin V1 Receptor it was 42.3%.

Regarding `O=C(Nc1ccc(C(=O)N2CC[C@@H]3CCCN3c3ccccc32)cc1)c1ccccc1-c1ccccc1` [Example 49, (3aS)-6-[4-[(2-Phenylbenzoyl) Amino]Benzoyl]-2,3,3a,4,5,6-Hexahydro-1H-Pyrrolo[1,2-a][1,5]Benzodiazepine], the “Amount of Urine Volume” value is 76.5 ml/kg/0-4 hr in the data set with Normal Conscious Rat (3 mg/kg, i.v.) and 43.8 ml/kg/0-4 hr with Normal Conscious Rat (30 mg/kg, p.o.). In addition, the inhibition at 0.1 µM was found to be 92.8% on Vasopressin V2 Receptor (setting [1]) and 88.3% at Vasopressin V1 Receptor (setting [1]).

`O=C(Nc1ccc(C(=O)N2CC[C@@H]3C[C@@H](O)CN3c3ccccc32)cc1)c1ccccc1-c1ccccc1` [Example 50]: the “Amount of Urine Volume” value in the data set on Normal Conscious Rat (3 mg/kg, i.v.) stood at 60.0 ml/kg/0-4 hr; with Normal Conscious Rat (30 mg/kg, p.o.), 36.0 ml/kg/0-4 hr. Moreover, the inhibition at 0.1 µM at Vasopressin V2 Receptor (setting [1]) came out at 97.8%; at Vasopressin V1 Receptor (setting [1]), 92.4%.

Turning to `O=C(Nc1ccc(C(=O)N2CC[C@H]3C[C@@H](O)CN3c3ccccc32)cc1)c1ccccc1-c1ccccc1` [Example 52, (2R,3aS)-2-Hydroxy-6-[4-[(2-Phenylbenzoyl) Amino]Benzoyl]-2,3,3a,4,5,6-Hexahydro-1H-Pyrrolo[1,2-a][1,5]Benzodiazepine], the “Amount of Urine Volume” value in the data set on Normal Conscious Rat (3 mg/kg, i.v.) turned out to be 60.6 ml/kg/0-4 hr; in the data set on Normal Conscious Rat (30 mg/kg, p.o.) it was 36.6 ml/kg/0-4 hr. Also, the inhibition at 0.1 µM at Vasopressin V2 Receptor (setting [1]) was found to be 100%; on Vasopressin V1 Receptor (setting [1]) it was 95.7%.

`O=C(Nc1ccc(C(=O)N2CC[C@H]3C[C@H](O)CN3c3ccccc32)cc1)c1ccccc1-c1ccccc1` [Example 54, (2S, 3aS)-2-Hydroxy-6-[4-[(2-Phenylbenzoyl) Amino]Benzoyl]-2,3,3a,4,5,6-Hexahydro-1H-Pyrrolo[1,2-a][1,5]Benzodiazepine]: the “Amount of Urine Volume” value in the data set on Normal Conscious Rat (3 mg/kg, i.v.) is reported as 78.3 ml/kg/0-4 hr; in the data set on Normal Conscious Rat (30 mg/kg, p.o.) it was 68.0 ml/kg/0-4 hr. The inhibition at 0.1 µM on Vasopressin V2 Receptor (setting [1]) turned out to be 95.1%; on Vasopressin V1 Receptor (setting [1]), 98.6%.
